From ChEMBL document CHEMBL3351688, “Studies on the anticonvulsant activity of 4-alkyl-1,2,4-triazole-3-thiones and their effect on GABAergic system” (Eur J Med Chem, 2014)

Experiments:
[1] = organism: Rattus norvegicus; assay: Displacement of [3H]flunitrazepam form benzodiazepine receptor in rat cerebral cortex assessed as specific radio-ligand binding level at 1 uM incubated for 20 mins by liquid scintillation counting method; type: tissue-based
[2] = system: Mus musculus; assay: Anticonvulsant activity in Swiss mouse assessed as protection against seizures at 300 mg/kg, ip administered 15 mins before test by maximal electroshock seizure test; type: functional; details: route intraperitoneal
[3] = molecular target: GABA-A receptor; anion channel (Homo sapiens) (UniProt P14867+P47870+P18507+P28472+P48169+Q99928+Q9UN88+P34903+O00591+O14764+Q8N1C3+P18505+P78334+P47869+P31644+Q16445); assay: Displacement of [3H]muscimol form GABAA receptor in rat cerebral cortex assessed as specific radio-ligand binding level at 1 uM incubated for 10 mins by liquid scintillation counting method; type: tissue-based; details: target entry is the homologue from another species
[4] = system: Mus musculus; assay: Anticonvulsant activity in Swiss mouse assessed as protection against seizures administered intraperitoneally 15 mins before test by maximal electroshock seizure test; type: functional; details: ip
[5] = Toxicity in Swiss mouse assessed as effect on motor performance administered intraperitoneally 60 mins before test by Chimney test; type: organism-based; details: in vivo, ip
[6] = Toxicity in Swiss mouse assessed as effect on motor performance administered intraperitoneally 120 mins before test by Chimney test; type: organism-based; details: in vivo, ip
[7] = system: Mus musculus; assay: Anticonvulsant activity in Swiss mouse assessed as protection against seizures at 300 mg/kg, ip administered 30 mins before test by maximal electroshock seizure test; type: functional; details: route intraperitoneal
[8] = Toxicity in Swiss mouse assessed as effect on motor performance administered intraperitoneally 15 mins before test by Chimney test; type: organism-based; details: in vivo, ip
[9] = Protective index, ratio of TD50 in ip Swiss mouse dosed intraperitoneally 15 mins before test by Chimney test to anticonvulsant ED50 in Swiss mouse dosed intraperitoneally 15 mins before test by MES test; type: ADME, organism-based; details: in vivo, read-out: Ratio TD50/ED50
[10] = system: Mus musculus; assay: Anticonvulsant activity in Swiss mouse assessed as protection against seizures at 300 mg/kg, ip administered 120 mins before test by maximal electroshock seizure test; type: functional; details: route intraperitoneal
[11] = system: Mus musculus; assay: Anticonvulsant activity in Swiss mouse assessed as protection against seizures administered intraperitoneally 120 mins before test by maximal electroshock seizure test; type: functional; details: ip
[12] = Protective index, ratio of TD50 in ip Swiss mouse dosed intraperitoneally 120 mins before test by Chimney test to anticonvulsant ED50 in Swiss mouse dosed intraperitoneally 120 mins before test by MES test; type: ADME, organism-based; details: in vivo, read-out: Ratio TD50/ED50
[13] = Protective index, ratio of TD50 in ip Swiss mouse dosed intraperitoneally 30 mins before test by Chimney test to anticonvulsant ED50 in Swiss mouse dosed intraperitoneally 30 mins before test by MES test; type: ADME, organism-based; details: in vivo, read-out: Ratio TD50/ED50
[14] = system: Mus musculus; assay: Anticonvulsant activity in Swiss mouse assessed as protection against seizures administered intraperitoneally 60 mins before test by maximal electroshock seizure test; type: functional; details: ip
[15] = system: Mus musculus; assay: Anticonvulsant activity in Swiss mouse assessed as protection against seizures administered intraperitoneally 30 mins before test by maximal electroshock seizure test; type: functional; details: ip
[16] = Protective index, ratio of TD50 in ip Swiss mouse dosed intraperitoneally 60 mins before test by Chimney test to anticonvulsant ED50 in Swiss mouse dosed intraperitoneally 60 mins before test by MES test; type: ADME, organism-based; details: in vivo, read-out: Ratio TD50/ED50
[17] = Toxicity in Swiss mouse assessed as effect on motor performance administered intraperitoneally 30 mins before test by Chimney test; type: organism-based; details: in vivo, ip
[18] = system: Mus musculus; assay: Anticonvulsant activity in Swiss mouse assessed as protection against seizures at 300 mg/kg, ip administered 60 mins before test by maximal electroshock seizure test; type: functional; details: route intraperitoneal

SMILES | Activity [1] | Activity [2] | Activity [3] | ED50 [4] | TD50 at 1 h [5] | TD50 at 2 h [6] | Activity [7] | TD50 at 0.25 h [8] | selectivity ratio at 0.25 h [9] | Activity [10] | ED50 [11] | selectivity ratio at 2 h [12] | selectivity ratio at 0.5 h [13] | ED50 [14] | ED50 [15] | selectivity ratio at 1 h [16] | TD50 at 0.5 h [17] | Activity [18]
CCn1c(Cc2cccc(Cl)c2)n[nH]c1=S | 15% | 100% | 0% | 51.1 mg/kg | 290 mg/kg | 345 mg/kg | 100% | 297 mg/kg | 5.8 | 100% | 88.3 mg/kg | 3.9 | 5.2 | 69.9 mg/kg | 54.4 mg/kg | 4.1 | 285 mg/kg | 100%
CCn1c(-c2cccc(Cl)c2Cl)n[nH]c1=S | 5% | 0% | 19% | – | – | – | 0% | – | – | 0% | – | – | – | – | – | – | – | 0%
CCCCCn1c(Cc2cccc(Cl)c2)n[nH]c1=S | 14% | 100% | 10% | 48.5 mg/kg | 329 mg/kg | 348 mg/kg | 100% | 371 mg/kg | 7.6 | 100% | 84.2 mg/kg | 4.1 | 5.2 | 68.4 mg/kg | 62.5 mg/kg | 4.8 | 322 mg/kg | 100%
CCCCCCn1c(-c2cccc(Cl)c2Cl)n[nH]c1=S | 10% | 12.5% | 2% | – | – | – | 12.5% | – | – | 12.5% | – | – | – | – | – | – | – | 25%
CCCCCCCCn1c(Cc2cccc(Cl)c2)n[nH]c1=S | 0% | 100% | 8% | 162 mg/kg | 436 mg/kg | 441 mg/kg | 100% | 391 mg/kg | 2.4 | 82.5% | 224 mg/kg | 2 | 2.9 | 153 mg/kg | 166 mg/kg | 2.8 | 486 mg/kg | 100%
CCCCCCCCCCCCn1c(Cc2cccc(Cl)c2)n[nH]c1=S | 12% | 0% | 0% | – | – | – | 0% | – | – | 0% | – | – | – | – | – | – | – | 0%
NCCCC(=O)O | – | – | 82% | – | – | – | – | – | – | – | – | – | – | – | – | – | – | –
CCCCCCCn1c(-c2cccc(Cl)c2Cl)n[nH]c1=S | 8% | 25% | 3% | – | – | – | 25% | – | – | 12.5% | – | – | – | – | – | – | – | 25%
CCCCCCCCCn1c(Cc2cccc(Cl)c2)n[nH]c1=S | 0% | 82.5% | 0% | 193 mg/kg | 493 mg/kg | 465 mg/kg | 100% | 476 mg/kg | 2.5 | 82.5% | 200 mg/kg | 2.3 | 4.2 | 86.8 mg/kg | 117 mg/kg | 5.7 | 493 mg/kg | 100%
CCCCCn1c(-c2cccc(Cl)c2Cl)n[nH]c1=S | 18% | 37.5% | 0% | 329 mg/kg | 348 mg/kg | 326 mg/kg | 62.5% | 386 mg/kg | 1.2 | 37.5% | 348 mg/kg | – | 1.3 | 285 mg/kg | 276 mg/kg | 1.2 | 354 mg/kg | 62.5%
CCCCCCn1c(Cc2cccc(Cl)c2)n[nH]c1=S | 1% | 100% | 3% | 72.1 mg/kg | 541 mg/kg | 548 mg/kg | 100% | > 1000 mg/kg | > 13.9 | 100% | 97.9 mg/kg | 5.6 | > 13.4 | 83.6 mg/kg | 74.5 mg/kg | 6.5 | > 1000 mg/kg | 100%
CCCCCCCn1c(Cc2cccc(Cl)c2)n[nH]c1=S | 1% | 100% | 4% | 49.7 mg/kg | 519 mg/kg | 442 mg/kg | 100% | 507 mg/kg | 10.2 | 100% | 89.6 mg/kg | 4.9 | 8.4 | 70.6 mg/kg | 76.3 mg/kg | 7.3 | 640 mg/kg | 100%
CN1C(=O)CN=C(c2ccccc2)c2cc(Cl)ccc21 | 83% | – | – | – | – | – | – | – | – | – | – | – | – | – | – | – | – | –
Cc1ccc(-c2nc3ccc(C)cn3c2CC(=O)N(C)C)cc1 | 73% | – | – | – | – | – | – | – | – | – | – | – | – | – | – | – | – | –
CCCCn1c(-c2cccc(Cl)c2Cl)n[nH]c1=S | 14% | 12.5% | 16% | – | – | – | 12.5% | – | – | 0% | – | – | – | – | – | – | – | 25%
CCCCn1c(Cc2cccc(Cl)c2)n[nH]c1=S | 0% | 100% | 13% | 44.5 mg/kg | 298 mg/kg | 325 mg/kg | 100% | 326 mg/kg | 7.3 | 100% | 102 mg/kg | 3.2 | 7.2 | 61.5 mg/kg | 43.2 mg/kg | 4.8 | 310 mg/kg | 100%
CCCCCCCCCCn1c(Cc2cccc(Cl)c2)n[nH]c1=S | 12% | 0% | 15% | – | – | – | 0% | – | – | 0% | – | – | – | – | – | – | – | 0%
